The subject of series [1] is MC3T3-E1 cells. Nature of the series: Real-time RT-PCR of bone markers, plastic wells. It counts as cell-based, mouse. Particulars: TCP, 2 days. The procedure:
To test the effect of the different treatments onto the plastic wells, 96-well plates made of polystyrene were used and the treatments with 7-DHC performed directly onto them. Cells grown onto untreated TCP were added as a control for all the experiments. Cells were seeded at a density of 30,000 cells/cm^2 and they were maintained in α-MEM supplemented with 10% FCS and antibiotics. Culture media was collected after 48 hours, to test cytotoxicity and the production of the hydroxylated forms of vitamin D. Cells were harvested after 2 days of culture using Trizol reagent (Roche Diagnostics, Mannheim, Germany), to analyse early gene expression response of several osteoblast differentiation markers and enzymes involved in vitamin D synthesis using real-time RT-PCR.
RNA was isolated from cells using a monophasic solution of phenol and guanidine thiocyanate (Trizol, Roche Diagnostics, Mannheim, Germany) according to the manufacturer's protocol. RNA was quantified at 260 nm using a Nanodrop spectrophotometer (NanoDrop Technologies, Wilmington, Del., USA).
Total RNA previously isolated was reverse-transcribed to cDNA using High Capacity RNA to cDNA kit (Applied Biosystems, Foster City, Calif.) according to the protocol of the supplier. The same amount of total RNA from each sample was converted into cDNA. Each cDNA was diluted ¼ and aliquots were stored at −20° C. until the PCR reactions were carried out.
Real-time RT-PCR was performed for two reference genes: 18S ribosomal RNA (18S rRNA), glyceraldehyde-3-phosphate dehydrogenase (GAPDH), and 11 target genes alkaline phospathase (ALP), Interleukin 6 (IL-6), Collagen (Coll-1), Osteocalcin (OC), Bone Morphogenetic Protein 2 (BMP-2), Osterix (Osx), Receptor activator of nuclear factor kappa-B ligand (RANKL), Osteoprogesterin (OPG) and genes involved in vitamin D synthesis such as Vitamin D3 25-hydroxylase (CYP27A1), 25 hydroxyvitamin D3-1-alpha hydroxylase (CYP27B1) and 1,25-dihydroxyvitamin D3 24-hydroxylase (CYP24A1).
Real-time PCR were performed in the Lightcycler 480® (Roche Diagnostics, Germany). Each reaction contained 5 μl of LightCycler-FastStart DNA Master^PLUS SYBR Green I (Roche Diagnostics, Mannheim, Germany), 0.5 μM of the sense and antisense specific primers (Table 1) and 3 μl of the cDNA dilution in a final volume of 10 μl. The normal amplification program consisted of a preincubation step for denaturation of the template cDNA (10 min 95° C.), followed by 45 cycles consisting of a denaturation step (10 s 95° C.), an annealing step (10 s 60° C., except for ALP that was 10 s at 65° C., OSX with 10 s at 68° C. and CYP24A1 at 58° C. 10 s) and an extension step (10 s 72° C.). After each cycle, fluorescence was measured at 72° C. Every run included a negative control without cDNA template. To confirm amplification specificity, PCR products were subjected to a melting curve analysis on the LightCycler and subsequently 2% agarose/TAE gel electrophoresis, Tm and amplicon size, respectively.
To allow relative quantification after PCR, real-time efficiencies were calculated from the given slopes in the LightCycler 480 software (Roche Diagnostics, Mannheim, Germany) using serial dilutions. Relative quantification after PCR was calculated by normalizing target gene concentration in each sample by the concentration mean of the two reference genes in given sample using the “advanced relative quantification method” provided by the LightCycler 480 analysis software.
(In qPCR the cycle at which signal appears reflects the starting amount.)

The nature of series [2]: HPLC quantification of 7-DHC and vitamin D3 on coated substrates before and after UV irradiation. It counts as physicochemical. The note with it: for m7-DHC (%): 100* m7-DHC/m7-DHC^0; for ηD3 (Vit D3 product yield): moles D3 after vs moles 7-DHC before irradiation. On the procedure:
Substrates (polystyrene, 96 well plate; or titanium, polished titanium disks, 6.2 mm diameter, 2 mm height, inserted in a 96 well plate) were covered with 0.2 nmol of 7-DHC and Vitamin E (7-DHC: VitE=20:1, m:m) by dropping 10 μl of a 7-DHC/VitE solution in absolute ethanol. After leaving the solvent to evaporate for 15 min, samples were UV irradiated for 15 min at 302 nm. The amounts of 7-DHC and D3 present in the surfaces were quantified by HPLC. Results were compared with substrates without Vit E and with non-irradiated surfaces. Pure ethanol was used as control for all groups. Sunlight exposure was avoided for all surfaces.
The coating of each surface was extracted by adding 100 μl of ‘methanol/acetonitrile/tetrahydrofurane/water’ (67:16:2:15, v:v) to each well and shaking the plate for 2 min at 20 rpm. The content of three replicate wells was mixed to give a sample of ≈300 μl. An aliquot of 100 μl of the sample was injected in the HPLC system. Two replicate samples were prepared and analyzed for each group.
The analysis were carried out using a Waters liquid chromatographic system (Milford, Mass., USA), equipped with a refrigerated automatic injector WISP700 and a 600 pump system, connected to a Waters 996 photodiode array (PDA) detector. The software Empower was used for instrument control and data analysis. Detection was carried out at 282 nm.
A Nova Pak C18 column (Waters) was used to separate sample components before detection. The column temperature was set to 30° C. Two solvents, A: ‘methanol/acetonitrile/tetrahydrofurane/water (67:16:2:15, v:v), and B: ‘methanol/acetonitrile/tetrahydrofurane’ (75:20:5, v:v) were used in gradient elution mode as the mobile phase. Solvents A and B were vacuum-filtered through a Nylon membrane (0.45 μm pore diameter) and degassed before use. The mobile phase flow rate was 1 ml·min^−1. The binary gradient used was as follows: from 5% B to 90% B in three minutes, held for 9.5 min at 90% B, from 90% B to 5% B in one minute and equilibrated between injections at the initial conditions for 5 min (total run time=15 min+5 min equilibration between injections).
Quantification was performed by integration of the peak area of the corresponding analyte and interpolation of the peak area in 7-DHC or Vit D3 standard curves.

Setting [3] is: Polystyrene, irradiated, UV 302 nm 15 min.
[4] abbreviates: Titanium, irradiated, UV 302 nm 15 min.

For `CC(C)CCC[C@@H](C)[C@H]1CC[C@H]2C3=CC=C4C[C@@H](O)CC[C@]4(C)[C@H]3CC[C@]12C` [7-DHC, 7-dehydrocholesterol], the “Collagen type-1 mRNA levels” value in series [1] (0.2 nmols UV-treated vs same treatment non UV-irradiated) is reported as “increased mRNA levels”. Also, the “Osteocalcin mRNA levels” value in series [1] (2 nmols UV-treated vs same treatment non UV-irradiated) is recorded as “statistical differences”. For the same molecule, in series [1] (2×10^−2 nmols UV-treated vs non-irradiated), the “Bone morphogenetic protein 2 mRNA levels” value is “significantly lower levels”. Further, the “ALP mRNA levels” value in series [1] (2×10^−3 nmols UV-treated vs same treatment non UV-irradiated) is “Higher ALP mRNA levels”. The Osterix expression levels result in series [1] (all UV-treated groups vs non irradiated, significant at 0.2 and 2 nmols) was “Higher expression levels”. Moreover, the “IL-6 mRNA levels” value in series [1] (different doses, UV-treated vs UV-untreated) is “No significant differences”. Besides, in series [1] (some UV-untreated samples compared to their control), the “RANKL mRNA levels” value was “lower”. For the same molecule, the m7-DHC amounted to 29.2 ± 2.0 ng/well in series [2] (setting [3]); 90.1 ± 2.9 ng/well in series [2] (Polystyrene, non irradiated); 42.1 ± 3.4 ng/well in series [2] (setting [4]); 99.9 ± 3.0 ng/well in series [2] (Titanium, non irradiated). For the same molecule, the figures for the mD3 in series [2] (setting [3]) and in series [2] (setting [4]) were 11.8 ± 0.4 ng/well and 16.4 ± 0.7 ng/well, respectively. In addition, the “m7-DHC (%)” value amounted to 29% in series [2] (setting [3]); 88% in series [2] (Polystyrene, non irradiated); 39% in series [2] (setting [4]); 92% in series [2] (Titanium, non irradiated). For the same molecule, the “ηD3 (Vit D3 product yield)” value is 13.1 ± 0.4% in series [2] (setting [3]) and 16.4 ± 0.7% in series [2] (setting [4]).

The values are drawn from patent US8821568B2, “Implant modified with non-hydroxylated vitamin D precursors” (Numat Biomedical S.L., priority 2008, dated 2014).
